# Results from patent US8476264B2, “N-(3-(2-amino-6,6-difluoro-4,4A,5,6,7,7A-hexahydro-cyclopenta[E][1,3]oxazin-4-yl)-phenylamides as BACE1 inhibitors” (Hoffmann-La Roche Inc., priority 2011, dated 2013).
# Legend:
# [1] = biological target: T1, BACE1 (Homo sapiens, UniProt P56817); assay: Cellular Aβ-lowering assay (Aβ40 ELISA); assay type: cell-based; details: HEK293 cells stably expressing human APP wt (APP695); Aβ40 in supernatant after 18-20 hrs; read-out: BACE1 cell act. Aβ40 IC50
# T1 construct: Human HEK293 cells which are stably transfected with a vector expressing a cDNA of the human APP wt gene (APP695); endogenous in cells; host or cells: HEK293 stably transfected with human APP695 wt
# Method in brief: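 Secreted Aβ40 in the supernatant was measured by sandwich ELISA (C-terminal Aβ40 capture, HRP-4G8 detection, 450 nm) against an Aβ peptide standard curve.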
# [2] = biological target: T2, P-gp (P-glycoprotein, human MDR1) (Homo sapiens, UniProt P08183); assay: P-gp (P-glycoprotein) assay, bidirectional transcellular transport in LLC-PK1 and L-MDR1 cells; assay type: in vitro ADME; details: ER = PappBA/PappAB, read-out: P-gp human, efflux ratio: substrate category
# T2 construct: host or cells: LLC-PK1 (porcine kidney epithelial) cells, L-MDR1
# Procedure: P-gp (P-glycoprotein) Assay Cell Lines Used for Transport Experiments
# The LLC-PK1 cell line (ATCC #CL-101) is a porcine kidney epithelial cell line. The MDR1 (Human multidrug resistance protein 1) transfected cell lines were obtained from Dr. A. Schinkel, The Netherlands Cancer Institute (Amsterdam, The Netherlands). All cell lines were cultured on permeable inserts (96-insert plates Millipore, 0.11 cm^2 area, pore size 0.4 μm) at 0.73*10^6 cells/ml. Transport measurements were performed at day 4 after seeding. Tightness of the cell monolayer was controlled via the permeability of the extracellular marker lucifer yellow (10 μM).
# In Vitro Transport Experiments
# Bidirectional transcellular transport using LLC-PK1 and L-MDR1 LLC-PK1 cells exogenously expressing the human MDR1)
# The experiments were performed on a TECAN automated liquid handling system. Briefly, medium was removed from all compartments and the medium of receiver side was replaced with culture medium. The trans-cellular transport measurements were initiated by adding the substrate together with extracellular marker lucifer yellow to the donor side. Inhibitors were added to both sides (1 μM elacridar). Transport experiments were performed both in the basolateral-to-apical and apical-to-basolateral directions with 3 wells each. The plates were incubated at 37° C. and 5% CO2 in a Liconic incubator. Samples were taken from the donor and the opposite (acceptor) side after 2 hours incubation. Concentrations of substrate in both compartments were determined by scintillation counting (digoxin) or by LC-MS/MS. The extracellular marker (lucifer yellow) was quantified using a spectrafluor plus reader at 430/535 nm (Ex/Em). In each experiment 3 different inserts were used for each condition and a mean was calculated.
# Bidirectional transcellular transport using LLC-PK1 and L-MDR1 cells
# For the transcellular transport, the following equation was used for data evaluation: […]
# Where Papp, A, C0, and dQ/dt represent the apparent permeability, the filter surface area, the initial concentration, and the amount transported per time period, respectively.
# Transport efflux ratios (ER) were calculated as follows: […]
# Where PappBA is the permeability value in the basolateral-to-apical direction, and PappAB the permeability value in the apical-to-basolateral direction. Papp were not corrected for flux of the extracellular marker lucifer yellow, which was used to assess the quality of the cell monolayers.
# T2 sequence (P08183 whole entry): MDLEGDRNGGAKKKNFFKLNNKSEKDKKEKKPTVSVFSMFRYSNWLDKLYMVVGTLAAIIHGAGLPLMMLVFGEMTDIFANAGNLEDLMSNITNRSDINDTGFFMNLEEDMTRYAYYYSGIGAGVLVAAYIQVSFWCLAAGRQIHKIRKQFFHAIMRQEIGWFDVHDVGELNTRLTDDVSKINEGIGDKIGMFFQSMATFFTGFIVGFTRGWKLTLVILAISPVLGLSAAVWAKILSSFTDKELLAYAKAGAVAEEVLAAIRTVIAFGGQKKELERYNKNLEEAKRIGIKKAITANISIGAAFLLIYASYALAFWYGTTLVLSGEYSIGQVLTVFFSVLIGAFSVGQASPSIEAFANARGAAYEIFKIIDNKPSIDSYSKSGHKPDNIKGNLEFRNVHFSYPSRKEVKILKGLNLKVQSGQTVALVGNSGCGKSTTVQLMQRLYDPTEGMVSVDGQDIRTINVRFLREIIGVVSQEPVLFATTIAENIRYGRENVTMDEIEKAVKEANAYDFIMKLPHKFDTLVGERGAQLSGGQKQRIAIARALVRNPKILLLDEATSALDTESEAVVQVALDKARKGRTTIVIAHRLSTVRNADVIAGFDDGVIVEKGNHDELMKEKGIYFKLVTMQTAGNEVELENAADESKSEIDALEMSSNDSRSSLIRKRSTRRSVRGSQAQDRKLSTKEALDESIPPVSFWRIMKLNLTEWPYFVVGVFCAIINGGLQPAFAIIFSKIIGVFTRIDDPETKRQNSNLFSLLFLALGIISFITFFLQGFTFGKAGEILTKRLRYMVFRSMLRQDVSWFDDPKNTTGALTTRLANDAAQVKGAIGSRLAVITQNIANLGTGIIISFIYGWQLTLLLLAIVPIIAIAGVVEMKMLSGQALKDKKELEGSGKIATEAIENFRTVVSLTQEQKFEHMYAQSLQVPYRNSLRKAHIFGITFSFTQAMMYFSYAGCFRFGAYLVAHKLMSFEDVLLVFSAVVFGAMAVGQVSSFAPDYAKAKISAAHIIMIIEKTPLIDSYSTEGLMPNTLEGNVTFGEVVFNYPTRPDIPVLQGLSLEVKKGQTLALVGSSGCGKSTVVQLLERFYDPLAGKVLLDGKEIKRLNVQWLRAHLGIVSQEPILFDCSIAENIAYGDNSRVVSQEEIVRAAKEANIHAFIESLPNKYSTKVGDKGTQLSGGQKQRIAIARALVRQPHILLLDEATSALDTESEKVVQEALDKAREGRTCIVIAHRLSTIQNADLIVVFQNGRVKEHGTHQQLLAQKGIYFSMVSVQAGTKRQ
# T1 sequence (P56817 46-501): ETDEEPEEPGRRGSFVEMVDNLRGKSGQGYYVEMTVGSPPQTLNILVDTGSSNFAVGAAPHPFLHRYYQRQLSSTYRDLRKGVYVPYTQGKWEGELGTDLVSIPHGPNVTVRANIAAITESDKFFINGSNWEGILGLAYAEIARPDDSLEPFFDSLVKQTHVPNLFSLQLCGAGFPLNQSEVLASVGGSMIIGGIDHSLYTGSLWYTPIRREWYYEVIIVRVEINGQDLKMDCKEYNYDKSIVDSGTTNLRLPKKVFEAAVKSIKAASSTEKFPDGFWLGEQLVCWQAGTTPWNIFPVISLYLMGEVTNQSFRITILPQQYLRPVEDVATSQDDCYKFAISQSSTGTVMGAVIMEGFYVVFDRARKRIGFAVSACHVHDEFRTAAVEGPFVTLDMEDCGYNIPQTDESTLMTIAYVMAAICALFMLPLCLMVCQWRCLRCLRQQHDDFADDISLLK
IC50 [1] [µM],efflux ratio at 2 h [2],SMILES
0.0079,< 3,"NC1=N[C@](CF)(c2cc(NC(=O)c3cnc(C(F)F)cn3)ccc2F)[C@H]2CC(F)(F)C[C@H]2O1 [Example 24, 5-Difluoromethyl-pyrazine-2-carboxylic acid [(S)-3-((1R,2R)-2-amino-6,6-difluoro-4-fluoromethyl-4,4a,5,6,7,7a-hexahydro-cyclopenta[e][1,3]oxazin-4-yl)-4-fluoro-phenyl]-amide]"
0.0145,< 3,"N#Cc1ccc(C(=O)Nc2ccc(F)c([C@@]3(C(F)F)N=C(N)O[C@@H]4CC(F)(F)C[C@@H]43)c2)nc1 [Example 36, 5-Cyano-pyridine-2-carboxylic acid [(S)-3-((1R,2R)-2-amino-4-difluoromethyl-6,6-difluoro-4,4a,5,6,7,7a-hexahydro-cyclopenta[e][1,3]oxazin-4-yl)-4-fluoro-phenyl]-amide]"
0.03,< 3,"COc1cnc(C(=O)Nc2ccc(F)c([C@@]3(C(F)F)N=C(N)O[C@@H]4CC(F)(F)C[C@@H]43)c2)cn1 [Example 42, 5-Methoxy-pyrazine-2-carboxylic acid [(S)-3-((1R,2R)-2-amino-4-difluoromethyl-6,6-difluoro-4,4a,5,6,7,7a-hexahydro-cyclopenta[e][1,3]oxazin-4-yl)-4-fluoro-phenyl]-amide]"

# More lines, now with the values behind:
SMILES,IC50 [1] [µM],efflux ratio at 2 h [2]
"N#Cc1ccc(C(=O)Nc2ccc(F)c([C@@]3(CF)N=C(N)O[C@@H]4CC(F)(F)C[C@@H]43)c2)nc1 [Example 3, 5-Cyano-pyridine-2-carboxylic acid [(S)-3-((1R,2R)-2-amino-6,6-difluoro-4-fluoromethyl-4,4a,5,6,7,7a-hexahydro-cyclopenta[e][1,3]oxazin-4-yl)-4-fluoro-phenyl]-amide]",0.0015,< 3
"NC1=N[C@](CF)(c2cc(NC(=O)c3ccc(F)cn3)ccc2F)[C@H]2CC(F)(F)C[C@H]2O1 [Example 7, 5-Fluoro-pyridine-2-carboxylic acid [(S)-3-((1R,2R)-2-amino-6,6-difluoro-4-fluoromethyl-4,4a,5,6,7,7a-hexahydro-cyclopenta[e][1,3]oxazin-4-yl)-4-fluoro-phenyl]-amide]",0.0166,< 3
